The source of these data is patent US12637428B2, “Isoquinoline derivatives as SIK2 inhibitors” (Cancer Research Technology Limited, priority 2019, dated 2026).

pKi: −log10 of the molar value. Some results are limits rather than exact numbers.

Format in all cases: biochemical
The target in one assay is T1, SIK2 (Homo sapiens, UniProt Q9H0K1).
T1 construct: purchased Life Technologies
Kind of assay: SIK2 kinase assay, IMAP fluorescence polarization. The conditions noted are these: 50 or 100 μM ATP, average. In a few lines:
(§1)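 Dose-response over 0.00005-1 μM compound in 20 mM Tris pH 7.2 containing 4 mM MgCl2, 0.2% BSA and 2 mM DTT, with 50 or 100 μM ATP and 100 nM FAM-labelled peptide. Kinase 0.6-13 nM, 60 min at room temperature; IMAP FP readout, inhibition normalized to no-inhibitor and no-enzyme controls.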
(Fluorescence polarisation rises when a labelled molecule tumbles more slowly, as on binding a larger partner.)

The target in a further assay is T2, Abl (Homo sapiens, UniProt P00519).
T2 construct: purchased Life Technologies
T2 sequence (P00519 whole entry): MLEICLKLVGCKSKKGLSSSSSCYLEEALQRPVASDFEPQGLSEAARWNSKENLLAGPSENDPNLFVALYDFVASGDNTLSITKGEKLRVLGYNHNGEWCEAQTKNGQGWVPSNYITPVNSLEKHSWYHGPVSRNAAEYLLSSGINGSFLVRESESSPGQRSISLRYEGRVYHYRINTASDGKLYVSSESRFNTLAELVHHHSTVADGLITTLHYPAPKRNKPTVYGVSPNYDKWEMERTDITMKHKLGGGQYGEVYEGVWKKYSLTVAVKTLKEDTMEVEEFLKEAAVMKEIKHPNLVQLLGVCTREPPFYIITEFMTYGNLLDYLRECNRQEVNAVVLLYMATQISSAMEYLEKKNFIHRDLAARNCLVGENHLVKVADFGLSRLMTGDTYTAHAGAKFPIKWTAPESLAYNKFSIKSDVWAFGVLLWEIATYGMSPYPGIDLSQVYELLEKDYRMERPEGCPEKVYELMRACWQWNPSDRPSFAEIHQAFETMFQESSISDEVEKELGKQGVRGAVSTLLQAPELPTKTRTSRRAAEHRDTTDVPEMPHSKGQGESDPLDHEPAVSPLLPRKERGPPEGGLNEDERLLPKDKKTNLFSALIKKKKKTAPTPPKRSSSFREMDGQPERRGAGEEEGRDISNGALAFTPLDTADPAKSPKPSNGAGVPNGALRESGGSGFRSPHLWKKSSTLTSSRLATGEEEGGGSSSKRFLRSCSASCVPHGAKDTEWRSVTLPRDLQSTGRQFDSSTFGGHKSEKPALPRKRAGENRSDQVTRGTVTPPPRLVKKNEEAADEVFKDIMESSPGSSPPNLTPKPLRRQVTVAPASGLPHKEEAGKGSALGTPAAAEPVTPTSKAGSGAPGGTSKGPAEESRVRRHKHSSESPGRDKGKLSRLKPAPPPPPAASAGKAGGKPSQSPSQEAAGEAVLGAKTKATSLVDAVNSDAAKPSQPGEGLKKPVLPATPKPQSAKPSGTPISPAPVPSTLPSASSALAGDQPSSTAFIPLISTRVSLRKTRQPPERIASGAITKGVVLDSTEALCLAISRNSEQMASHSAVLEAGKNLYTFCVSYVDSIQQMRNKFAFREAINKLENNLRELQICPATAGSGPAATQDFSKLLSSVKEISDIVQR
The experiment in a line: Abl kinase assay, IMAP fluorescence polarization. The settings on record: 50 or 100 μM ATP, average. The method, boiled down:
as §1

For the next assay, the target named is T3, EPHA2 (Homo sapiens, UniProt P29317).
T3 construct: purchased Life Technologies
T3 sequence (P29317 24-976): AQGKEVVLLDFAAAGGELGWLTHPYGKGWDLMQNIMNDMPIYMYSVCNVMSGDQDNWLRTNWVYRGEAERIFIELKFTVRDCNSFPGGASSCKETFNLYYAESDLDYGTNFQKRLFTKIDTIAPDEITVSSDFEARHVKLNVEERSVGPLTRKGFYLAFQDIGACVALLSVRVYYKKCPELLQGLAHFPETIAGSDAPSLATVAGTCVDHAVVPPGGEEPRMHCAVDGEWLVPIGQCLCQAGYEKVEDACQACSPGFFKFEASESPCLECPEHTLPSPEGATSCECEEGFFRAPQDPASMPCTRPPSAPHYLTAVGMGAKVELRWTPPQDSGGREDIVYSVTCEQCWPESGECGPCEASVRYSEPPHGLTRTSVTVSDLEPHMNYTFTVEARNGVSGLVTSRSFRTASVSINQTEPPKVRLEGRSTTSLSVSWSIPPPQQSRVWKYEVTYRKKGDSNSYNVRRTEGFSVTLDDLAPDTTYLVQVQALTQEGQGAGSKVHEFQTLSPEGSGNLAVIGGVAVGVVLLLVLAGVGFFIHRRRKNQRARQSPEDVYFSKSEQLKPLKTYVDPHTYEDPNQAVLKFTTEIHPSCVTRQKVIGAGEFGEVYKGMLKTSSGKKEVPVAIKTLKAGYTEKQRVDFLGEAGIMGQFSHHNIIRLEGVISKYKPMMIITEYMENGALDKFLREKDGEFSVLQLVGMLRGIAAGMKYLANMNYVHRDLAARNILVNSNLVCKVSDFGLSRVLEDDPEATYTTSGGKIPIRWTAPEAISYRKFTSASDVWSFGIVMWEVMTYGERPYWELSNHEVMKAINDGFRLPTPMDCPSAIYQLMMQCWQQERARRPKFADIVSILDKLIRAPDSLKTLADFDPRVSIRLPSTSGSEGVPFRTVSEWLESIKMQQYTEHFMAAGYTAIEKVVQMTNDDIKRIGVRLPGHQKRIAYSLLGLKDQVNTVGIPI
Kind of assay: EPHA2 kinase assay, IMAP fluorescence polarization. The settings on record: 50 or 100 μM ATP, Tris pH 8.5, average.

The target of the next assay is T4, SIK3 (Homo sapiens, UniProt Q9Y2K2).
T4 construct: purchased Life Technologies
T4 sequence (Q9Y2K2 whole entry): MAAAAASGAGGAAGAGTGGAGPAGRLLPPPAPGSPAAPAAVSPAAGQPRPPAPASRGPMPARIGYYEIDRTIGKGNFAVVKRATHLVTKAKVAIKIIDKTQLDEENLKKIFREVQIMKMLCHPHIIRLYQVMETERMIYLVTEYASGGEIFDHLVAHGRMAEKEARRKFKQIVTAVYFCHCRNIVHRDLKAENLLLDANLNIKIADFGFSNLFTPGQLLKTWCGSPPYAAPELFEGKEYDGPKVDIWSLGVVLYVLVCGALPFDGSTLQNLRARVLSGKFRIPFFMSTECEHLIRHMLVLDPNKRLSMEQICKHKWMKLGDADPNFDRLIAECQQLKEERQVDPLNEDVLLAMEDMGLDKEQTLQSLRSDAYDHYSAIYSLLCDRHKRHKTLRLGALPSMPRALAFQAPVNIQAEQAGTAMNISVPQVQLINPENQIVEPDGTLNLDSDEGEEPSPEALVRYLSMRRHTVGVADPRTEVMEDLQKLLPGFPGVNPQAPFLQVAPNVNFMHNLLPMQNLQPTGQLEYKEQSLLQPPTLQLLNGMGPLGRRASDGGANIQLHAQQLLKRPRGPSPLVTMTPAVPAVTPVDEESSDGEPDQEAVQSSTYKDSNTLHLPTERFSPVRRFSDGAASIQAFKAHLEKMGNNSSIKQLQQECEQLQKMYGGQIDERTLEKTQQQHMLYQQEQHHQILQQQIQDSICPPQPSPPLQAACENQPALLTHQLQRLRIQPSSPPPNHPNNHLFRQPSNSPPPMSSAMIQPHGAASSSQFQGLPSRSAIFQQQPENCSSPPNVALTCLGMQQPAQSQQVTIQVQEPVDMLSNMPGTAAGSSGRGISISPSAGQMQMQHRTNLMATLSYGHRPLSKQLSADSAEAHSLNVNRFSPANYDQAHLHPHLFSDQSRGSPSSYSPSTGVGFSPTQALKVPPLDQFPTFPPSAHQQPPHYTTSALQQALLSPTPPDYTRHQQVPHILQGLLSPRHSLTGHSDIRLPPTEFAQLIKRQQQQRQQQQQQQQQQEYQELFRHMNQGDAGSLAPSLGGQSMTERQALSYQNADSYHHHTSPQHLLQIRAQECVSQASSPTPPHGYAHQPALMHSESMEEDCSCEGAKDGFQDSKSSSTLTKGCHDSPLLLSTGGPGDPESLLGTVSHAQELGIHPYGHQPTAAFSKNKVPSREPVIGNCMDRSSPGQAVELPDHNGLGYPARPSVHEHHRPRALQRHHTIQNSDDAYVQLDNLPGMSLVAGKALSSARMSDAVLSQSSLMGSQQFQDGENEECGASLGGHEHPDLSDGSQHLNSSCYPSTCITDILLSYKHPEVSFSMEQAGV
Kind of assay: SIK3 kinase assay, IMAP fluorescence polarization. The settings on record: 50 or 100 μM ATP, average. In a few lines:
as §1

A further assay deals with T5, SIK1 (Homo sapiens, UniProt P57059).
T5 construct: purchased Life Technologies
T5 sequence (P57059 whole entry): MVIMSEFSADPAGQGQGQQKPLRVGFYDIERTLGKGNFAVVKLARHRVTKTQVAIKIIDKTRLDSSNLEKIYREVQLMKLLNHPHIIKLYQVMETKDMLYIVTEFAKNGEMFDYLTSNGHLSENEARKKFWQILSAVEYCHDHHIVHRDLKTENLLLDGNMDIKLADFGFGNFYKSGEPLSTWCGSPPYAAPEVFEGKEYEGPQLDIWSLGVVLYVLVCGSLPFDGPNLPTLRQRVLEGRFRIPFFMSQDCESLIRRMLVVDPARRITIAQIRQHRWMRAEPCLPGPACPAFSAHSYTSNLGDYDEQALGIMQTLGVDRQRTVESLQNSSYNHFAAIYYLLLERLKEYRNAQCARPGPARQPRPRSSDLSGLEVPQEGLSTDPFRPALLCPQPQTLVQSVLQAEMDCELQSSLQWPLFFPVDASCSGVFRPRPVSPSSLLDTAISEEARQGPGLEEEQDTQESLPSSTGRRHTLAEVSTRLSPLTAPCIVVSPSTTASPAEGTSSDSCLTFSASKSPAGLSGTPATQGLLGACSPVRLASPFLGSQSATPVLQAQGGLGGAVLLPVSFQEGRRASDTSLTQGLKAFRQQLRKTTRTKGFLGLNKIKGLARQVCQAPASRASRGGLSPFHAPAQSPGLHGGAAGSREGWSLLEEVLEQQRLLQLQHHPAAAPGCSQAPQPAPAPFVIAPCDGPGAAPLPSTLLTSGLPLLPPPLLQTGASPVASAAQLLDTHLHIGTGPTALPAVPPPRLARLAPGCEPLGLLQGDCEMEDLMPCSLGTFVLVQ
Kind of assay: SIK1 kinase assay, IMAP fluorescence polarization. The settings on record: 50 or 100 μM ATP, average. The method, boiled down: as §1

Another assay deals with T6, Src (Homo sapiens, UniProt P12931).
T6 construct: purchased Life Technologies
The experiment in a line: Src kinase assay, IMAP fluorescence polarization. The conditions noted are these: 50 or 100 μM ATP, average. The method, boiled down: as §1

T1 sequence (Q9H0K1 whole entry): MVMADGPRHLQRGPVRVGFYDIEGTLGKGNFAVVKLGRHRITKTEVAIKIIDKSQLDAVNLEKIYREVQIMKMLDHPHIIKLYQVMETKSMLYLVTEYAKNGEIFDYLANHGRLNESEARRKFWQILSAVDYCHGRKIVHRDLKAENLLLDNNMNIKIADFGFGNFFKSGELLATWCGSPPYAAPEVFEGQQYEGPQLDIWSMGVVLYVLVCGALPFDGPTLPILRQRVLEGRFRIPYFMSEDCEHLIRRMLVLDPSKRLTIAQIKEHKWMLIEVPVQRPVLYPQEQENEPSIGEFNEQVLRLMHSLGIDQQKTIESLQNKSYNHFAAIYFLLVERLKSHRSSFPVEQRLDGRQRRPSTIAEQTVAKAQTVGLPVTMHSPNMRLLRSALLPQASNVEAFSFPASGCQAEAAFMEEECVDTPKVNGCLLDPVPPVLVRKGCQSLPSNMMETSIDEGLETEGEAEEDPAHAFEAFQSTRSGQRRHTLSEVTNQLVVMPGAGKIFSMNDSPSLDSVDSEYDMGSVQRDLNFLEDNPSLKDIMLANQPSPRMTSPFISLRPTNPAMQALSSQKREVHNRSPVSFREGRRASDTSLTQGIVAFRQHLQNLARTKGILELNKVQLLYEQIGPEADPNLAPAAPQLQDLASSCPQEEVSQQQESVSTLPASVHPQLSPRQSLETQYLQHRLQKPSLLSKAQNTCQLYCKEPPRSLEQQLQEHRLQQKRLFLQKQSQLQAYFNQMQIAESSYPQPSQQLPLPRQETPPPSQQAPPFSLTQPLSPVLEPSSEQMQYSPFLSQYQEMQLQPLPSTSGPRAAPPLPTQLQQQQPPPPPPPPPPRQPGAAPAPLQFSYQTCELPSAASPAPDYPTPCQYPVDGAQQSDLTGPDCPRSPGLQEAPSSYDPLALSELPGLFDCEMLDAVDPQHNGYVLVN

The pKi is −log10 of the Ki, conventionally taken in molar units. The low end stands for a high Ki, the high end for a low Ki. For the compound `Cc1cccc(Cl)c1-c1cc(NC2CCNCC2)c2ccncc2c1` [Example 50, 7-(2-chloro-6-methyl-phenyl)-N-(4-piperidyl) isoquinolin-5-amine], the negative logarithm of the Ki (pKi) is 9.01 on SIK2; 7.18 on Abl; 7.72 on EPHA2; 8.49 on SIK3; 8.90 at SIK1; 7.01 on Src.
As to `Cc1cccc(F)c1-c1cc(NC[C@@H]2CCCN(C)C2)c2cc(N)ncc2c1` [Example 76, 7-(2-fluoro-6-methyl-phenyl)-N5-[[(3S)-1-methyl-3-piperidyl]methyl]isoq uinoline-3,5-diamine], the negative logarithm of the Ki (pKi) was 9.73 at SIK2; 8.70 on Abl; 7.78 on EPHA2; 8.79 on SIK3; 9.29 on SIK1; 7.90 at Src.
Take `Cc1cccc(F)c1-c1cc(C2CCN(C)CC2)c2cc(N)ncc2c1` [Example 117, 7-(2-Fluoro-6-methyl-phenyl)-5-(1-methyl-4-piperidyl)isoquinolin-3-amine]: the pKi at SIK2 is 10.26; on Abl, 7.91; on EPHA2, below 6.00; at SIK3, 9.32; at SIK1 it was 9.17; at Src, below 6.00.
With `Cc1cccc(F)c1-c1cc(C(=O)NC2CN(C)C2)c2cc(N)ncc2c1` [Example 100, 3-amino-7-(2-fluoro-6-methyl-phenyl)-N-(1-methylazetidin-3-yl)isoquinoline-5-carboxamide], the pKi at SIK2 was 8.36; on Abl, 8.44; at EPHA2, 6.88; at SIK3 it was 7.21; at SIK1, 7.93; on Src, 7.38.
For the compound `Cc1cccc(Cl)c1-c1cc(NC2CN(C)C2)c2cc(N)ncc2c1` [Example 63, 7-(2-chloro-6-methyl-phenyl)-N5-(1-methylazetidin-3-yl)isoquinoline-3,5-diamine], the negative logarithm of the Ki (pKi) at SIK2 is 9.00; on Abl it was 6.98; on EPHA2, 6.66; on SIK3, 8.00; at SIK1, 8.70; on Src, 6.82.
Regarding `Cc1cccc(F)c1-c1cc(NC2CN(C)C2)c2ccncc2c1` [Example 65, 7-(2-Fluoro-6-methyl-phenyl)-N-(1-methylazetidin-3-yl)isoquinolin-5-amine], the pKi on SIK2 was 9.15; at Abl it was 7.44; on EPHA2, 6.58; at SIK3, 8.34; on SIK1 it was 8.43; at Src it was 6.55.
As to `CCN1CCC(Nc2cc(-c3c(C)cccc3F)cc3cnc(N)nc23)CC1` [Example 127, N8-(1-Ethyl-4-piperidyl)-6-(2-fluoro-6-methyl-phenyl)quinazoline-2,8-diamine], the negative-log Ki (pKi) on SIK2 is 9.78; on Abl it was 8.15; at EPHA2 it was 6.83; on SIK3, 8.92; at SIK1, 9.19; at Src it was 7.51.
In the case of `Cc1cccc(F)c1-c1cc(N2CCC(O)CC2)c2cc(N)ncc2c1` [Example 104, 1-[3-Amino-7-(2-fluoro-6-methyl-phenyl)-5-isoquinolyl]piperidin-4-ol], the pKi was 8.36 on SIK2; 7.34 on Abl; below 6.00 at EPHA2; 6.75 on SIK3; 7.36 on SIK1; below 6.00 on Src.
For the compound `Cc1cccc(F)c1-c1cc(N2CCC[C@@H](N(C)C)C2)c2cc(N)ncc2c1` [Example 84, 5-[(3R)-3-(dimethylamino)-1-piperidyl]-7-(2-fluoro-6-methyl-phenyl)isoquinolin-3-amine], the negative-log Ki (pKi) at SIK2 was 10.09; on Abl, 7.31; at EPHA2, below 6.00; at SIK3 it was 8.65; on SIK1, 9.39; on Src, 6.56.
For the compound `CN[C@H]1CCCN(c2cc(-c3c(C)cccc3F)cc3cnc(N)cc23)C1` [Example 18, 7-(2-fluoro-6-methyl-phenyl)-5-[(3S)-3-(methylamino)-1-piperidyl]isoquinolin-3-amine], the negative logarithm of the Ki (pKi) at SIK2 is 9.71; at Abl, 8.73; on EPHA2, 7.00; on SIK3, 8.15; on SIK1, 9.18; at Src, 7.27.
As to `Cc1cccc(F)c1-c1cc(C(=O)NC2CCN(C)CC2)c2cc(N)ncc2c1` [Example 116, 3-Amino-7-(2-fluoro-6-methyl-phenyl)-N-(1-methyl-4-piperidyl)isoquinoline-5-carboxamide], the pKi at SIK2 was 8.31; on Abl, 7.78; on EPHA2, 7.32; on SIK3 it was 7.86; on SIK1 it was 8.07; at Src, 7.10.
As to `Cc1cccc(F)c1-c1cc(C(=O)NC2CCNCC2)c2cc(N)ncc2c1` [Example 52, 3-Amino-7-(2-fluoro-6-methyl-phenyl)-N-(4-piperidyl)isoquinoline-5-carboxamide], the pKi is 8.51 on SIK2; 7.92 on Abl; 7.62 at EPHA2; 7.94 on SIK3; 8.26 on SIK1; 7.22 at Src.
As to `CN[C@@H]1CCN(c2cc(-c3c(C)cccc3F)cc3cnc(N)cc23)C1` [Example 24, 7-(2-fluoro-6-methyl-phenyl)-5-[(3R)-3-(methylamino)pyrrolidin-1-yl]isoquinolin-3-amine], the pKi at SIK2 was 9.40; on Abl it was 7.47; at EPHA2, 6.83; at SIK3 it was 8.12; on SIK1, 8.63; at Src it was 6.49.
`Cc1cccc(F)c1-c1ccc2c(C(=O)NC3CN(C)C3)c(N)ncc2c1` [Example 89, 3-Amino-7-(2-fluoro-6-methyl-phenyl)-N-(1-methylazetidin-3-yl)isoquinoline-4-carboxamide]: the pKi is 8.27 on SIK2; 7.08 on Abl; 5.73 at EPHA2; 6.89 at SIK3; 7.27 at SIK1; 5.98 on Src.
Turning to `CC(=O)Nc1cc2c(NC3CCN(C)CC3)cc(-c3c(C)cccc3F)cc2cn1` [Example 115, N-[7-(2-Fluoro-6-methyl-phenyl)-5-[(1-methyl-4-piperidyl)amino]-3-isoquinolyl]acetamide], the negative logarithm of the Ki (pKi) is 10.56 at SIK2; 9.61 at Abl; 8.97 on EPHA2; 9.52 on SIK3; 9.74 at SIK1; 9.01 at Src.
Turning to `Cc1cccc(F)c1-c1cc(N[C@H]2CCCNC2)c2cc(N)ncc2c1` [Example 26, 7-(2-fluoro-6-methyl-phenyl)-N5-[(3S)-3-piperidyl]isoquinoline-3,5-diamine], the pKi at SIK2 was 10.40; at Abl, 9.47; on EPHA2, 7.61; on SIK3 it was 10.08; at SIK1, 9.52; at Src it was 6.79.
For `Cc1cccc(F)c1-c1cc(NC[C@H]2CCCN2)c2cc(N)ncc2c1` [Example 12, 7-(2-fluoro-6-methyl-phenyl)-N5-[[(2R)-pyrrolidin-2-yl]methyl]isoquinoline-3,5-diamine], the pKi was 9.48 on SIK2; 7.64 on Abl; 6.66 on EPHA2; 8.51 at SIK3; 8.97 on SIK1; 6.78 at Src.
